Measurements taken from patent publication US5981573A, “N,N-disubstituted amic acid derivatives” (Banyu Pharmaceutical Co., Ltd., priority 1996, dated 1999).

Key:
[1] = biological target: T1, protein-farnesyl transferase (PFT) (Rattus norvegicus, UniProt Q02293+Q04631); assay: Inhibitory activities against protein-farnesyl transferase (PFT); assay type: biochemical; conditions: PFT derived from rat brain; prenyl acceptor H-ras protein or biotin-added Lys-Thr-Ser-Cys-Val-Ile-Met; 37° C., 20 minutes; read-out: 50% inhibitory concentrations (IC50) against PFT activities
T1 construct: PFT derived from rat brain (Q-sepharose fraction); from tissue; host or cells: rat brain (soluble fraction, 30-50% ammonium sulfate cut, Q-Sepharose fraction)
Method: Pharmacological Test 1 (Inhibitory activities against protein-farnesyl transferase)
PFT was separated in such a manner that a soluble fraction of rat s brain was fractionated by means of 30%-50% saturated ammonium sulfate, further dialyzed and then subjected to column chromatography by Q-sepharose™ (manufactured by Pharmacia) (Reiss et al., Cell, vol. 62, pp. 81-88 (1990)).
(2) Method for measuring PFT activities
Measurement of PFT activities was conducted by using, as a prenyl acceptor, H-ras protein or a peptide corresponding to the C-terminal 7 amino acid residues of K-rasB protein which had biotin added to the N-terminal (biotin-added Lys-Thr-Ser-Cys-Val-Ile-Met) and, as a prenyl donor, [^3 H]-labeled farnesyl pyrophosphate (FPP) (Reiss et al., Methods: A Companion to Methods in Enzymology, vol. 1, No. 3, pp. 241-245 (1990)). […]
The enzymatic reaction product containing H-ras protein as the prenyl acceptor, was analyzed by SDS-PAGE (sodium dodecyl sulfate/polyacrylamide gel electrophoresis). […]
The measurement of PFT activities using H-ras protein as the prenyl receptor, was also analyzed by a rapid separate method. […]

[2] = tested on: farnesyl-modification of Ras protein in NIH3T3 cells transformed by activated ras gene; assay: Inhibitory activities against farnesyl-modification of Ras protein in NIH3T3 cells transformed by activated ras gene; assay type: cell-based; conditions: Mus musculus, 24 hours, read-out: 50% inhibitory concentrations (IC50) against farnesyl-modification of Ras protein
Method: PHARMACOLOGICAL TEST EXAMPLE 2 (Inhibitory activities against farnesyl-modification of Ras protein)
Using the compounds of the present invention, inhibitory activities against farnesyl-modification of Ras protein in NIH3T3 cells transformed by activated ras gene, were measured.
The NIH3T3 cells transformed by activated ras gene, were seeded on a culture plate and cultured for 3 days. Then, a compound of the present invention in a predetermined concentration was added to the culture. In accordance with the method disclosed in J. Biol. Chem., vol. 268, p. 18415 (1993), the cells were cultured for 24 hours and then taken off from the plate, and the cells were dissolved. After centrifugal separation for 5 minutes under 12000 g, the supernatant was used as a cell extract. The cell extract was subjected to SDS polyacrylamide gel electrophoresis to separate farnesyl-modified Ras protein and non-farnesyl-modified Ras protein. The protein on the gel was transferred onto a nitrocellulose membrane, and an anti-Ras protein antibody was reacted as a probe (primary antibody reaction). An anti-primary antibody, a peroxidase inclusion (secondary antibody), was reacted, and then Ras protein was detected by a chemical fluorescence enhancing kit. The proportion of non-farnesyl-modified Ras protein was quantified by a densitometer and taken as the inhibitory activity. […]

## CCOC(=O)C(CC(=O)O)=C(O)C(=O)N(CC#Cc1ccccc1)[C@H](C)[C@H](Cc1ccc(C(=O)Nc2ccccc2)o1)c1ccc2c(c1)OCO2 (relative stereo) [Example 17, 3-(ethoxycarbonyl)-4-hydroxy-4-[N [(1RS,2RS)-1-methyl-2-(3,4-methylenedioxyphenyl)-3-{5-(phenylcarbamoyl)-2-furyl}propyl]-N-(3-phenyl-2-propynyl)carbamoyl]-3-butenoic acid]
[1]
  IC50: 1.7 nM
[2]
  IC50: 4.3 nM

## C[C@H]([C@H](Cc1ccc(C(=O)Nc2ccccc2)o1)c1ccc2c(c1)OCO2)N(C/C=C/c1ccccc1)C(=O)C(O)=C(CC(=O)O)C(=O)OC(C)(C)C [Example 1, 3-(tert-butoxycarbonyl)-4-hydroxy-4-[N-[(1R,2R)-1-methyl-2-(3,4-methylenedioxyphenyl)-3-{5-(phenylcarbamoyl)-2-furyl}propyl]-N-{(E)-3-phenyl-2-propenyl}carbamoyl]-3-butenoic acid]
[1]
  IC50: 0.74 nM
[2]
  IC50: 1.3 nM
